Data set [1] relates to nitric oxide (NO) production. Briefly: Inhibition of Nitric Oxide (NO) Production (griess reagent) in LPS-stimulated RAW264.7 cells. It counts as cell-based. The conditions noted are these: 24 hours; for NO Production (%): LPS 1 μg/ml, relative to LPS control = 100. As for the experimental part: (§1) RAW264.7 macrophage cells were obtained from the American Type Culture Collection (ATCC) and cultured in Dulbecco's Modified Eagle's Medium (DMEM) containing 100 units/mL penicillin-streptomycin and 10% (v/v) fetal bovine serum (FBS) at 37 °C in a 5% CO2 incubator, and subculture was performed every 2 to 3 days.
RAW264.7 cells were seeded at 1.5×10^5 cells/well in a 24-well plate and incubated for 18 hours at 37 °C in a 5% CO2 incubator. The cells were then treated with the peptide prepared in the above Example at concentrations of 50-200 μM and incubated for 24 hours.
From each experimental group, 100 μL of the supernatant was collected into a 96-well plate, and 100 μL of griess reagent was added. The mixture was allowed to react at room temperature for 10 minutes, and absorbance was measured at 540 nm using a microplate reader. The positive control group was treated with 2 µM of 2-amino-4-methylpyridine (2-AM). The relative levels of NO production following the treatments described in the above Example, based on NO production induced by the stimulant (LPS), are shown in Table 1 and FIG. 2 below.
On the technique in general: Griess reagent forms a coloured azo dye with nitrite.

Data set [2] deals with hyaluronic acid production. Briefly: Hyaluronic acid (HA) production in HaCaT cells (ELISA). Type of data set: cell-based, human. As for the experimental part: The HaCaT human keratinocyte cell line was obtained from Cell Line Service GmbH (Germany). The cells were cultured in DMEM containing 1% penicillin-streptomycin and 10% fetal bovine serum (FBS) at 37 °C in a 5% CO2 incubator, and subculture was performed every 2 to 3 days.
HaCaT cells were seeded at 1.0×10^5 cells/well in a 24-well plate and incubated for 24 hours at 37 °C in a 5% CO2 incubator. After incubation, the culture medium was replaced with serum-free DMEM, and the peptide prepared in the above Example was applied at concentrations of 50-200 μM, followed by incubation for 24 hours.
The supernatant from each experimental group was collected, and the amount of hyaluronic acid (HA) released into the medium was measured. The positive control group was treated with N-acetylglucosamine at a concentration of 10 mM. Measurement of hyaluronic acid production was conducted using a Hyaluronic Acid ELISA Kit (Cusabio Biotechnology Co., Ltd.) following the manufacturer's protocol.
On the technique in general: In an ELISA, binding on a coated surface is turned into a signal by an enzyme label.

The subject of data set [3] is procollagen type I peptide production. Briefly: Procollagen Type I Peptide (PIP) production in NHDF cells (EIA). Type of data set: cell-based, Human. How it is done:
Normal Human Dermal Fibroblasts (NHDF) were obtained from Lonza (Lonza Walkersville, Inc.) and cultured in FBM (Fibroblast Basal Medium) supplemented with 0.1% hFGF-B, insulin, GA-1000, and 2% FBS at 37 °C in a 5% CO2 incubator. Subculture was performed every 2 to 3 days.
NHDF cells were seeded at 2.0×10^4 cells/well in a 24-well plate and incubated for 24 hours at 37 °C in a 5% CO2 incubator. After incubation, the culture medium was replaced with serum-free FBM, and the peptide prepared in the above Example was applied at concentrations of 1-100 μM, followed by incubation for 24 hours. The supernatant from each experimental group was collected, and the amount of procollagen released into the medium was measured. The positive control group was treated with ascorbic acid at a concentration of 0.001 v/v %. Measurement of procollagen levels was performed using a Procollagen Type I Peptide (PIP) EIA Kit (Takara Biomedical Co.) according to the manufacturer's protocol. The quantitative results of procollagen type I peptide production following treatment with the peptide of the Example are shown in Table 3 and FIG. 4.

Data set [4] in a line: Cytotoxicity Evaluation in Macrophages (EZ-Cytox Assay). It counts as cell-based. The conditions noted are these: mouse, positive control, LPS 1 μg/ml, RAW264.7 cells, control = 100, read-out: Cell viability (%). How it is done:
as §1
The EZ-cytox assay is a representative method for measuring cell viability using the principle that water-soluble tetrazolium salts (WSTs) react with dehydrogenases of viable cells to produce a water-soluble orange formazan.
To evaluate cytotoxicity, RAW264.7 cells were seeded at 1.5×10^4 cells/well in a 96-well plate using DMEM supplemented with 10% FBS and incubated for 18 hours at 37 °C in a 5% CO2 incubator. The test samples were then applied to the cultured cells. After treatment, EZ-cytox was added to each well and incubated for 30 minutes under the same conditions. Absorbance was measured at 450 nm using a microplate reader. The mean absorbance values of each sample group were compared with the control group to determine cell viability.

The mark [5] stands for this setting: 50 μM, 24 hours, untreated group = 100.
The mark [6] stands for this setting: 100 μM, 24 hours, untreated group = 100.

Where a SMILES comes first, the peptide text is derived from it.

The viability is the share of living cells, or the viability signal relative to a control.

As to `N[C@@H](Cc1ccc(O)cc1)C(=O)NCC(=O)N[C@@H](CO)C(=O)N[C@@H](CC(=O)O)C(=O)O` [Example, Tyr-Gly-Ser-Asp] (H-YGSD-OH), the “NO Production (%)” value in data set [1] (50 μM) is 101.55 ± 2.59%; in data set [1] (100 μM), 91.42 ± 4.58%; in data set [1] (200 μM) it was 86.51 ± 2.39%. Further, the “NO production, result in words” value in data set [1] (50-200 μM, LPS) is “inhibit NO production in a concentration-dependent manner”. The “Hyaluronic acid production (%)” value in data set [2] (setting [5]) is 105.1 ± 5.45%; in data set [2] (setting [6]), 123.64 ± 0.81%; in data set [2] (200 μM, 24 hours, untreated group = 100) it was 132.68 ± 22.43%. The “hyaluronic acid production, result in words” value in data set [2] (50-200 μM, 24 hours) is given as “increase in hyaluronic acid production”. Also, the “Procollagen production (%)” value in data set [3] (1 μM, 24 hours, untreated group = 100) is on record as 103.47 ± 6.38%; in data set [3] (10 μM, 24 hours, untreated group = 100), 110.79 ± 5.44%; in data set [3] (setting [5]), 121.67 ± 3.57%; in data set [3] (setting [6]), 132.38 ± 1.24%. In data set [3] (1-100 μM, 24 hours), the “procollagen production, result in words” value is given as “increase in procollagen production”.
Take `CC(=O)N[C@H]1C(O)O[C@H](CO)[C@@H](O)[C@@H]1O` (stereo partly shown) [NAG, N-acetylglucosamine, reference compound]: the activity at 10000 µM in data set [2] (Homo sapiens, 24 h, 10 mM, positive control, untreated group = 100) came out at 121 ± 10.4%.
Turning to `O=C1O[C@H]([C@@H](O)CO)C(O)=C1O` [Asc. A, ascorbic acid, reference compound], the activity at 10 µg/mL in data set [3] (Homo sapiens, 24 h, 10 μg/mL, positive control, untreated group = 100) stood at 176 ± 3.91%.
For the compound `Cc1ccnc(N)c1` [Example 2-AM, 2-amino-4-methylpyridine, reference compound], the viability at 10 µM in data set [4] was determined as 94.1 ± 1.76%.

Source of the values: US20260365695A1, “NOVEL PEPTIDE EXHIBITING SKIN CONDITION IMPROVEMENT ACTIVITY AND COSMETIC COMPOSITION CONTAINING SAME” (DAEBONG LS CO., LTD., priority 2023, published 2026).
